Measurements taken from patent publication US20050249787A1, “Methods and compositions for reducing oxidative stress in an animal” (Nestec SA, priority 2004, published 2005).
Marks after values point to notes of the source that are not given here.

Experiments:
[1] = tested on: canine lens epithelial cells; test: Canine lens epithelial cells stressed with UV light (Example 3); assay type: cell-based; details: astaxanthin at physiological levels, UV light stress
Text: An in vitro experiment may be performed using canine lens epithelial cells supplemented with astaxanthin at physiological levels.

[2] = dog, in vivo
Experimental: Three groups of twelve dogs (mixed breed Alaskan sled dogs (husky pointer crosses)) were fed commercially available Pro Plan® Performance chicken and rice formula dog food as a basal diet, and each group was fed either: a placebo consisting of about 0.5 g maltodextrin, about 2 mg astaxanthin, or about 400 mg Vitamin E (alpha-tocopherol). Pro Plan® dog food is available from Nestle Purina Pet Care Company in St. Louis, Missouri. The dogs were trained three times a week on an exercise wheel for a period of six weeks. On the sixth week, the dogs rested for four days and then exercised three days in a row. […] Plasma from the blood samples was analyzed for concentrations of malondialdehyde, F-2 isoprostanes, Vitamin E, creatine kinase activity as well as oxygen radical absorption capacity (ORAC). […]
The testing took place over a six day period. […] This sampling schedule was designed to examine changes in the parameters measured during exercise and during recovery. […] The vials were recovered from liquid nitrogen and stored at −70°C. until analyzed. Each plasma sample was analyzed for malondialdehyde concentration using a standard HPLC, F2-isoprostane concentration utilizing a mass spectrometer and standard ELISA, Vitamin E concentration utilizing a standard HPLC, and Oxidative Radical Absorbance Capacity (ORAC test kit, Oxford Co. […]

[3] = Antibody titers against an antigen (Example 5); assay type: in vivo, dogs; details: diet containing astaxanthin vs control animals
Experimental: (§1) To assess the effect of astaxanthin supplementation on immune function, dogs may be fed a diet containing astaxanthin and/or Vitamin E for 16 weeks. The amount of astaxanthin used may be 0, 1, 5, 10, 20, and 40 mg per animal per day. Various assays may be performed to assess immune function.
Control animals and animals fed a diet containing astaxanthin may also be assessed for the robustness of the immune response against an antigen. For example, antibody titers against an antigen may be measured for control animals and animals fed a diet containing astaxanthin.

[4] = Osteoarthritis diet study, plasma and synovial fluid markers and gait (Example 6); assay type: in vivo, dogs; details: 12 weeks
Text: A diet supplemented with astaxanthin may be shown to reduce inflammation and associated pain in osteoarthritis. […] At 12 weeks of treatment, plasma and synovial fluid samples are taken from each animal and assayed for total antioxidant activity, and levels of malionaldehyde, prostaglandin, isoprostanes, MMPs and TIMPs. Additionally, the gait of the dogs may be assessed using standard force plate analyses.

cataract formation = test: In vivo cataract formation study, slit-lamp test (Example 4); design: species or system dogs; details: treatment with astaxanthin, optionally Vitamin E, lutein, zeaxanthin, zinc; vs control; two year study
Text: In a model study, 40 dogs could be chosen and randomly allocated to either the control group or to a treatment group receiving AAFCO recommended levels of antioxidants. The treatment group would receive astaxanthin and may also receive one or more of Vitamin E, lutein, zeaxanthin and zinc.

malondialdehyde = test: Plasma malondialdehyde (MDA) in exercising sled dogs (HPLC); assay type: in vivo
Experimental: (§2) Three groups of twelve dogs (mixed breed Alaskan sled dogs (husky pointer crosses)) were fed commercially available Pro Plan® Performance chicken and rice formula dog food as a basal diet, and each group was fed either: a placebo consisting of about 0.5 g maltodextrin, about 2 mg astaxanthin, or about 400 mg Vitamin E (alpha-tocopherol). Pro Plan® dog food is available from Nestle Purina Pet Care Company in St. Louis, Missouri. The dogs were trained three times a week on an exercise wheel for a period of six weeks. On the sixth week, the dogs rested for four days and then exercised three days in a row. Blood samples were collected before exercise on day one, immediately after exercise on day three, and at 24 hours and 48 hours after exercise. Plasma from the blood samples was analyzed for concentrations of malondialdehyde, F-2 isoprostanes, Vitamin E, creatine kinase activity as well as oxygen radical absorption capacity (ORAC).
(§3) All the dogs were maintained on the same basal diet (Purina Pro Plan® Performance chicken and rice formula) for one month prior to the onset and the entire duration of the experiment. Each dog was fed as an individual to maintain an optimal body condition score of 4/10.
(§4) Thirty-six sled dogs were housed at the Nestle Purina facility in Salcha, Alaska. The dogs were divided into three groups of 12 dogs so that each group was alike in age, sex and ability distribution. A treatment was randomly assigned to each group by drawing from a hat. Group “A” was assigned about 400 mg Vitamin E/day, group “B” was assigned about 2 mg Astaxanthin/day and group “C” was assigned about 500mg maltodextrin as a placebo. The people responsible for feeding, care, and training of the dogs were blind as to the identity of treatments until the completion of the study. Dogs were treated for six weeks before the onset of testing. They were also trained lightly for two sessions per week during this time period. Training sessions consisted of walking at 14 kilometers per hour for 2 hours in a 40-foot diameter circle tethered to a dog-walking wheel.
(§5) The testing took place over a six day period. On day one, pre-exercise blood samples were drawn from all the dogs. On day two, the dogs ran twelve km while pulling an all terrain vehicle (ATV) weighing 500 pounds. On day three, the dogs walked 16 miles on the dog wheel. On day four, the dogs again pulled the ATV for a distance of 12 kilometers. Immediately after exercise on day four, blood samples were drawn. Additional blood samples were drawn again at 24 hours and 48 hours after exercise. This sampling schedule was designed to examine changes in the parameters measured during exercise and during recovery. Samples were obtained by jugular venipuncture and collected into evacuated glass tubes containing sodium EDTA as an anticoagulant. Once collected they were kept on ice for not more than 10 minutes before they were centrifuged at 10,000 revolutions per minute (RPM) in 4°C. for a period of 10 minutes. The plasma was transferred into freezer vials where the dead space was replaced with gaseous nitrogen to decrease further oxidation during storage. The vials were then capped and immediately quenched in liquid nitrogen. The vials were recovered from liquid nitrogen and stored at −70°C. until analyzed. Each plasma sample was analyzed for malondialdehyde concentration using a standard HPLC, F2-isoprostane concentration utilizing a mass spectrometer and standard ELISA, Vitamin E concentration utilizing a standard HPLC, and Oxidative Radical Absorbance Capacity (ORAC test kit, Oxford Co.
(§6) F2 isoprostane and CK data was evaluated using a two way ANOVA for repeated measures. Post hoc comparisons were made using a student's t test corrected for repeated measures by the Bonneferroni method. Statistical significance was set at p<0.05 . The other data was also evaluated using ANOVA. The abbreviation “se” used with respect to the data in the tables below refers to standard error.

creatine kinase = test: Plasma creatine kinase (CK) in exercising sled dogs; assay type: in vivo
Experimental: as §2, §3, §4, §5, §6

[5] = Delayed-type hypersensitivity skin reaction (Example 5); assay type: in vivo, dogs; details: diet containing astaxanthin vs control animals
Experimental: as §1
Delayed-type hypersensitivity may also be assessed in animals given a diet supplemented with astaxanthin. In these assays, control animals and animals fed a diet containing astaxanthin are given cutaneous injections of saline, a mitogen or a vaccine of distemper virus. The animals are then assessed to measure the skin reactions to mitogen, virus and control. In animals fed a diet containing astaxanthin, the skin reactions are more robust for virus and mitogen than that found in control animals.

[6] = cited from earlier work
[7] = tested on: peripheral blood mononuclear cells (PBMCs); test: In vitro lymphoproliferation of stimulated PBMC (Example 5); assay type: cell-based, dogs; details: astaxanthin added to the media during stimulation, vs absence
F2-isoprostane = test: Plasma F2-isoprostane (F2I) in exercising sled dogs; assay type: in vivo
Experimental: as §2, §3, §4, §5, §6

NK cells = test: Natural killer (NK) cell cytotoxicity from supplemented animals (Example 5); assay type: in vivo, dogs; details: diet containing astaxanthin vs control animals
Experimental: as §1
In another assay, natural killer (NK) cell cytotoxicity is assessed for NK cells isolated from animals that are fed a diet including astaxanthin supplementation.

[8] = Plasma total Oxidative Radical Absorptive Capacity (ORAC) in exercising sled dogs; assay type: in vivo; details: for ORAC (index of total anti-oxidant status) improvement by supplementation: any of the time periods measured
Experimental: as §2, §3, §4, §5, §6

Row | Structure (SMILES) | Plasma Vitamin E concentration compared between treatment groups [2] | Plasma MDA (mean +/− se) (malondialdehyde; 24 hour post) | Plasma MDA (mean +/− se) (malondialdehyde; 48 hour post) | Plasma MDA (mean +/− se) (malondialdehyde; Post-ex) | Changes in Plasma MDA over time, Change from Baseline (malondialdehyde; Pre to 24 hour post) | Changes in Plasma MDA over time, Change from Baseline (malondialdehyde; Pre to 48 hour Post) | Changes in Plasma MDA over time, Change from Baseline (malondialdehyde; Pre to Post) | Plasma MDA (mean +/− se) (malondialdehyde; Pre-ex) | Plasma Creatine Kinase (mean +/− se) (creatine kinase; 24 hour post) | Plasma Creatine Kinase (mean +/− se) (creatine kinase; 48 hour post) | Plasma Creatine Kinase (mean +/− se) (creatine kinase; Post-ex) | Plasma Creatine Kinase (mean +/− se) (creatine kinase; Pre-ex) | Plasma F2 Isoprostane concentration (mean +/− se) (F2-isoprostane; 24 hour post) | Plasma F2 Isoprostane concentration (mean +/− se) (F2-isoprostane; 48 hour post) | Plasma F2 Isoprostane concentration (mean +/− se) (F2-isoprostane; Post-ex) | Plasma F2 Isoprostane concentration (mean +/− se) (F2-isoprostane; Pre-ex) | Plasma total ORAC (mean +/− se) ([8]; 24 hour post) | Plasma total ORAC (mean +/− se) ([8]; 48 hour post) | Plasma total ORAC (mean +/− se) ([8]; Post-ex) | Plasma total ORAC (mean +/− se) ([8]; Pre-ex) | further results
1 | CC1=C(/C=C/C(C)=C/C=C/C(C)=C/C=C/C=C(C)/C=C/C=C(C)/C=C/C2=C(C)C(=O)[C@@H](O)CC2(C)C)C(C)(C)C[C@H](O)C1=O [ATX, astaxanthin] | no significant difference | 0.95 | 1.44 | 1.58 | −0.485* | −0.004 | 0.135 | 1.45 | 171 | 158 | 152 | 109 | 90 | 66 | 52 | 167 | 5700 | 4800 | 7460 | 7980 | cell death [1]: significantly less cell death; free radical formation and lipid peroxidation products [1]: significantly reduce; antibody titers against an antigen [3]: higher antibody titers; isoprostanes, total antioxidant activity and MMPs in plasma and synovial fluid ([4]; 1, 5, 10, 20, or 40 mg per animal per day): decrease; gait, force plate analyses ([4]; compared to controls): significant improvement in gait; cataract formation and severity, slit-lamp test (cataract formation): control group has significantly more cataract formation; Plasma malondialdehyde compared with placebo and Vitamin E groups (malondialdehyde; 24 hours post exercise): lower than either the placebo value or the Vitamin E value; CK values compared with the Vitamin E group (creatine kinase; all time periods but 24 hours post-exercise): lower; skin reactions to virus and mitogen (delayed-type hypersensitivity) [5]: more robust; in vitro oxygen radical absorptive capacity relative to Vitamin E [6]: 4 times; proliferation of PBMC [7]: increases proliferation of cells significantly more; F2I values compared to the placebo group (F2-isoprostane; immediately post-exercise and at 24 hours post-exercise): lower; NK cytotoxicity (NK cells): significantly increased; ORAC (index of total anti-oxidant status) improvement by supplementation [8]: not improved
2 | Cc1c(C)c2c(c(C)c1O)CC[C@@](C)(CCC[C@H](C)CCC[C@H](C)CCCC(C)C)O2 [Vitamin E, alpha-tocopherol, reference compound] | greatest | 1.44 | 1.44 | 1.17 | −0.071 | −0.069 | −0.336* | 1.51 | 184 | 204 | 208 | 139 | 130 | 78 | 223 | 144 | 7590 | 4840 | 5850 | 7480 | malondialdehyde concentrations compared to the placebo group (malondialdehyde; during exercise): decreased; F2I value compared to the placebo value (F2-isoprostane; 24 hour post-exercise): lower; ORAC (index of total anti-oxidant status) improvement by supplementation [8]: not improved
